Values quoted from earlier work in patent publication EP4570798A1, “AROMATIC HETEROCYCLIC CYCLOHEXYL AMINOALKYL PIPERIDINE DERIVATIVE, PREPARATION METHOD AND USE THEREOF” (Jiangsu NHWA Pharmaceutical Co., Ltd, priority 2022, dated 2024).

How the values were obtained:
D3 = D3 (Homo sapiens, UniProt P35462); conditions: literature value; cited from earlier work
D2 = D2 (Homo sapiens, UniProt P14416); conditions: literature value; cited from earlier work
5-HT1A = molecular target: T1, 5-HT1A (Homo sapiens, UniProt P08908); conditions: literature value; cited from earlier work
T1 sequence (P08908 1-422): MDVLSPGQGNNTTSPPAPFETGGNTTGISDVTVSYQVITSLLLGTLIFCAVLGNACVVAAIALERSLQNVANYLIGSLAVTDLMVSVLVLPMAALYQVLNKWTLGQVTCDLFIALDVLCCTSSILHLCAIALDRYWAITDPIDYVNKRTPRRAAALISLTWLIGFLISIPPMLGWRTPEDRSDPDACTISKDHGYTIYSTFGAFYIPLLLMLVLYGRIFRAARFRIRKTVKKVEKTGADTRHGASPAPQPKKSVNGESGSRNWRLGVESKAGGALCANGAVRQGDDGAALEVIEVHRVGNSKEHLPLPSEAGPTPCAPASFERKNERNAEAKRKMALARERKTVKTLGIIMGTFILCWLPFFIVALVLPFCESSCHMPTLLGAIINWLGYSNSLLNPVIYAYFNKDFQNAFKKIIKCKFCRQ

5HT1A/1B = 5HT1A/1B agonist, literature value; cited from earlier work

Chain of D3 (P35462 whole entry): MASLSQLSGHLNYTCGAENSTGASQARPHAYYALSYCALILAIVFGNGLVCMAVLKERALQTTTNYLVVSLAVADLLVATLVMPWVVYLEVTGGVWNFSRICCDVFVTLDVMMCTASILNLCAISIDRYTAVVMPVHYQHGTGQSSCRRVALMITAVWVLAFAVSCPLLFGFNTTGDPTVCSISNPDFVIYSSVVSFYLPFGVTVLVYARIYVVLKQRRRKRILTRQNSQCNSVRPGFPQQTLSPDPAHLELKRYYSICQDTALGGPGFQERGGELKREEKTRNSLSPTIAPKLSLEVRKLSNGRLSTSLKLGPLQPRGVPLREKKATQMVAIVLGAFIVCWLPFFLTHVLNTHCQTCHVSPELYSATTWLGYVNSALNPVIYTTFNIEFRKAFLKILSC
Chain of D2 (P14416 whole entry): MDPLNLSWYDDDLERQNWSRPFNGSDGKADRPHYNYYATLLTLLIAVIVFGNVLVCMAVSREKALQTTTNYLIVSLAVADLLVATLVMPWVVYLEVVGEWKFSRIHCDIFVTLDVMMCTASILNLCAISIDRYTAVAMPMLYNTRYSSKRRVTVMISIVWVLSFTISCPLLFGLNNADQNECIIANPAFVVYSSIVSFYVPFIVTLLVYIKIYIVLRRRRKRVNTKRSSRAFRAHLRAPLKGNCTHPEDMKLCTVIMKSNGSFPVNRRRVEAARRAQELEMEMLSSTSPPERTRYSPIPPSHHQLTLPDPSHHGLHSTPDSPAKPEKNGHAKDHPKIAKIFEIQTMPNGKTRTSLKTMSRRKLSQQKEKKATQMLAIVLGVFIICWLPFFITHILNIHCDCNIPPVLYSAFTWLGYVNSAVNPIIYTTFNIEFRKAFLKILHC

SMILES | IC50 (D3) | EC50 (D2) | EC50 (5-HT1A) | EC50 (5HT1A/1B) | EC50 (D3)
O=c1[nH]c2cccc(N3CCN(Cc4cccc(-c5ccccc5)c4)CC3)c2o1 [Bifeprunox] | 15.2 nM | 39.8 nM | 47.8 nM | – | –
c1cc2c(c(N3CCNCC3)c1)OCCO2 [Eltoprazine] | – | – | – | 148 nM | –
CN1CCN(c2cccc3[nH]c(=O)oc23)CC1 [Pardoprunox] | – | 10 nM | 500 nM | – | 0.6 nM
